Columns and labels:
Assay type in all cases: functional
Set-up in all cases: scale not given: the % may be the effect or the level left
HeLa S3 [1] = assay: Inhibition of DNA synthesis in human HeLaS3 cells assessed as [3H]thymidine incorporation at 10.4 ug/ml after 45 mins by liquid scintillation counting
HeLa S3 [2] = assay: Inhibition of DNA synthesis in human HeLaS3 cells assessed as [3H]thymidine incorporation at 25 ug/ml after 45 mins by liquid scintillation counting
HeLa S3 [3] = assay: Inhibition of DNA synthesis in human HeLaS3 cells assessed as [3H]thymidine incorporation at 50 ug/ml after 45 mins by liquid scintillation counting
HeLa S3 [4] = assay: Inhibition of DNA synthesis in human HeLaS3 cells assessed as [3H]thymidine incorporation at 75 ug/ml after 45 mins by liquid scintillation counting
HeLa S3 [5] = assay: Inhibition of protein synthesis in human HeLaS3 cells assessed as [3H]leucine incorporation at 10.4 ug/ml after 45 mins by liquid scintillation counting
HeLa S3 [6] = assay: Inhibition of protein synthesis in human HeLaS3 cells assessed as [3H]leucine incorporation at 25 ug/ml after 45 mins by liquid scintillation counting
HeLa S3 [7] = assay: Inhibition of protein synthesis in human HeLaS3 cells assessed as [3H]leucine incorporation at 50 ug/ml after 45 mins by liquid scintillation counting
HeLa S3 [8] = assay: Inhibition of protein synthesis in human HeLaS3 cells assessed as [3H]leucine incorporation at 75 ug/ml after 45 mins by liquid scintillation counting
HeLa S3 [9] = assay: Inhibition of RNA synthesis in human HeLaS3 cells assessed as [3H]uridine incorporation at 10.4 ug/ml after 45 mins by liquid scintillation counting
HeLa S3 [10] = assay: Inhibition of RNA synthesis in human HeLaS3 cells assessed as [3H]uridine incorporation at 25 ug/ml after 45 mins by liquid scintillation counting
HeLa S3 [11] = assay: Inhibition of RNA synthesis in human HeLaS3 cells assessed as [3H]uridine incorporation at 50 ug/ml after 45 mins by liquid scintillation counting
HeLa S3 [12] = assay: Inhibition of RNA synthesis in human HeLaS3 cells assessed as [3H]uridine incorporation at 75 ug/ml after 45 mins by liquid scintillation counting
HL-60 [13] = assay: Inhibition of DNA synthesis in human HL60 cells assessed as [3H]thymidine incorporation at 10.4 ug/ml after 45 mins by liquid scintillation counting
HL-60 [14] = assay: Inhibition of DNA synthesis in human HL60 cells assessed as [3H]thymidine incorporation at 25 ug/ml after 45 mins by liquid scintillation counting
HL-60 [15] = assay: Inhibition of DNA synthesis in human HL60 cells assessed as [3H]thymidine incorporation at 50 ug/ml after 45 mins by liquid scintillation counting
HL-60 [16] = assay: Inhibition of DNA synthesis in human HL60 cells assessed as [3H]thymidine incorporation at 75 ug/ml after 45 mins by liquid scintillation counting
HL-60 [17] = assay: Inhibition of protein synthesis in human HL60 cells assessed as [3H]leucine incorporation at 10.4 ug/ml after 45 mins by liquid scintillation counting
HL-60 [18] = assay: Inhibition of protein synthesis in human HL60 cells assessed as [3H]leucine incorporation at 25 ug/ml after 45 mins by liquid scintillation counting
HL-60 [19] = assay: Inhibition of protein synthesis in human HL60 cells assessed as [3H]leucine incorporation at 50 ug/ml after 45 mins by liquid scintillation counting
HL-60 [20] = assay: Inhibition of protein synthesis in human HL60 cells assessed as [3H]leucine incorporation at 75 ug/ml after 45 mins by liquid scintillation counting
HL-60 [21] = assay: Inhibition of RNA synthesis in human HL60 cells assessed as [3H]uridine incorporation at 10.4 ug/ml after 45 mins by liquid scintillation counting
HL-60 [22] = assay: Inhibition of RNA synthesis in human HL60 cells assessed as [3H]uridine incorporation at 25 ug/ml after 45 mins by liquid scintillation counting
HL-60 [23] = assay: Inhibition of RNA synthesis in human HL60 cells assessed as [3H]uridine incorporation at 50 ug/ml after 45 mins by liquid scintillation counting
HL-60 [24] = assay: Inhibition of RNA synthesis in human HL60 cells assessed as [3H]uridine incorporation at 75 ug/ml after 45 mins by liquid scintillation counting

COc1ccc(O)c(CC=C(C)C)c1
Activity (HeLa S3 [1]): 100%
Activity (HeLa S3 [2]): 59%
Activity (HeLa S3 [3]): 70%
Activity (HeLa S3 [4]): 31%
Activity (HeLa S3 [5]): 96%
Activity (HeLa S3 [6]): 43%
Activity (HeLa S3 [7]): 38%
Activity (HeLa S3 [8]): 37%
Activity (HeLa S3 [9]): 97%
Activity (HeLa S3 [10]): 86%
Activity (HeLa S3 [11]): 91%
Activity (HeLa S3 [12]): 90%
Activity (HL-60 [13]): 64%
Activity (HL-60 [14]): 32%
Activity (HL-60 [15]): 14%
Activity (HL-60 [16]): 1.5%
Activity (HL-60 [17]): 49%
Activity (HL-60 [18]): 38%
Activity (HL-60 [19]): 35%
Activity (HL-60 [20]): 32%
Activity (HL-60 [21]): 98%
Activity (HL-60 [22]): 50%
Activity (HL-60 [23]): 55%
Activity (HL-60 [24]): 38%

CC(C)=CCC/C(C)=C/CC/C(C)=C/CC/C(C)=C/Cc1cc(O)ccc1O [GERANYLGERANYLHYDROQUINONE]
Activity (HeLa S3 [1]): 100%
Activity (HeLa S3 [2]): 74%
Activity (HeLa S3 [3]): 83%
Activity (HeLa S3 [4]): 49%
Activity (HeLa S3 [5]): 100%
Activity (HeLa S3 [6]): 92%
Activity (HeLa S3 [7]): 67%
Activity (HeLa S3 [8]): 61%
Activity (HeLa S3 [9]): 96%
Activity (HeLa S3 [10]): 83%
Activity (HeLa S3 [11]): 91%
Activity (HeLa S3 [12]): 86%
Activity (HL-60 [13]): 55%
Activity (HL-60 [14]): 38%
Activity (HL-60 [15]): 20%
Activity (HL-60 [16]): 17%
Activity (HL-60 [17]): 85%
Activity (HL-60 [18]): 52%
Activity (HL-60 [19]): 52%
Activity (HL-60 [20]): 32%
Activity (HL-60 [21]): 95%
Activity (HL-60 [22]): 32%
Activity (HL-60 [23]): 36%
Activity (HL-60 [24]): 42%
